Source: patent US7071218B2, “N-substituted heterocycles for the treatment of hypercholesteremia, dyslipidemia and other metabolic disorders; cancer, and other diseases” (Incyte San Diego Incorporated, priority 2001, dated 2006)

Legend:
[1] = tested on: 3T3-L1 cells; assay: 3T3-L1 adipocyte differentiation (lipid content), alone or with rosiglitazone (BRL49653); assay type: cell-based, mouse; conditions: 7 days of treatment
Description: The mouse preadipocyte cell line 3T3-L1 has been extensively used to study adipocyte differentiation. Upon stimulation with differentiating agents, preadipocytes typically undergo one cell cycle expansion and then they are growth arrested and dramatically change their shape to become more rounded cells, loaded with lipids, in a fashion closely reflecting adipogenesis in vivo. In this well-known process of differentiation, peroxisome proliferator activated receptor gamma (PPARγ) and retinoid X receptor (RXR) play a key role. PPARγ binds as an obligatory heterodimer with RXR to specific responsive sequences in the promoter region of target genes. In the particular case of PPARγ/RXR heterodimers, both receptors can be activated via their specific ligands. As a consequence of such activation, adipocyte-specific genes are turned on (C/EBP, aP2, LPL, adipsin, etc) and adipocyte differentiation results. Because lipid accumulation is the endpoint of adipocyte differentiation, the quantification of lipids which have accumulated in cells upon treatment with the compound(s) of interest, will indicate the ability of that compound to trigger adipocyte differentiation. More importantly, the potency of that compound can be estimated as well based on the total amount of lipids accumulated. The amount of lipid measured at the end of the assay for each tested compound is here compared to that of Compound 73 at 0.1 μM, which is considered 100% (see FIG. 11A).
In the particular case of measuring the potential antagonistic activity of some compounds, the putative antagonist is combined together with an agonist (such as the PPARγ agonist BRL49653). Thus, the amount of lipids accumulated in response to BRL49653 (considered as 100% in this case), is decreased by the compound with antagonistic activity (see FIG. 11B).
Materials and Methods: Mouse embryo fibroblast 3T3-L1 cell line, from American Type Culture Collection (ATCC), was used as a model of adipocyte differentiation.
Growing medium (GM): DME Dulbecco's modified Eagle's medium containing 4500 mg/L glucose; 4 mM L-glutamine; 10 U/ml Pen-G; 10 mcg/ml and 10% Calf Serum (CS).
Differentiation medium (DM): DME Dulbecco's modified Eagle's medium containing 4500 mg/L glucose; 4 mM L-glutamine; 10 U/ml Pen-G; 10 mcg/ml and 10% Fetal Calf Serum (FCS). Cells are always kept at 10% CO2.
Cells were seeded at 3,000 cells/well in 96 well-tissue culture plates in growing medium.
Two days after reaching confluence, cells were treated with the different compounds of interest in DM (Day 0). Drugs were replaced every 2–3 days in DM. Differentiation was assessed after 7 days of treatment, by measuring the lipid content in the cells, using the Triglyceride (INFINITY) reagent (Quantitative assay). • Controls: All cells, including control cells (vehicle), are treated with the same volume of dimethyl sulfoxide (DMSO) never exceeding 0.1% final solvent concentration. As a positive control for differentiation, cells were treated with 10 μg insulin per ml and 2.5 μM dexamethasone (Ins/Dex).

[2] = tested on: LXR; assay: In vitro transactivation assay in CV-1 cells, antagonism of T0901317-induced Gal-LXR activation; assay type: cell-based; conditions: at 10 μM, with 1 μM agonist T0901317, dose-dependent
Description: In vitro screens such as the transactivation assay can be used to measure the ability of a compound to inhibit a nuclear receptor regulating lipid or carbohydrate uptake, synthesis or metabolism. In the assay described herein compounds can be identified that can inhibit activation of the following nuclear receptors: LXR, PPARα, PPARγ and FXR. This activity can be useful to treat lipid disorders such as hypercholesteremia and obesity.
Cell line: Kidney Green Monkey CV-1 cells.
Growing culturing medium: Dulbecco's modified Eagle's medium (DMEM) supplememnted with 10% fetal calf serum (FCS).
Procedure: CV-1 cells were plated in 48 well-plate culture plates, at a density of 10,000 cells/well, 24 h prior to transfection. One to three hours before transfection, cells were fed with fresh medium. A modified calcium phosphate precipitation procedure was used for transient transfection (Pfahl, M. et al., 1990, Methods in Enzymology 189: 256).
Typically, 40 ng reporter plasmid and 20 ng of each receptor expression vector were mixed, together with 10 ng of β-galactosidase control plasmid (pCH110, Pharmacia, Piscataway, N.J.) and Bluescript plasmid to obtain a total of 400 ng DNA per well. To this mixture 1 μl of 2.5M CaCl2 and 10 μl of BBS buffer, pH 6.95, were added afterward. […]

In the case of CN(C)c1cc2c(cc1-c1ccc3cc(/C=C4\SC(=S)N(CC(=O)O)C4=O)ccc3c1)C(C)(C)CCC2(C)C [Compound 7, {5-[6-(3-Dimethylamino-5,5,8,8-tetramethyl-5,6,7,8-tetrahydro-naphthalen-2-yl)-naphthalen-2-ylmethylene]-4-oxo-2-thioxo-thiazolidin-3-yl}-acetic acid], the “lipid accumulation / differentiation of 3T3-L1 cells by the compound alone” value ([1]; 1e-10M to 1e-5M) is reported as “lacked the ability to differentiate 3T3-L1 cells by themselves”, the “inhibition of adipocyte differentiation / lipid accumulation induced by rosiglitazone (BRL49653)” value ([1]; in combination with rosiglitazone) is reported as “strongly inhibited” and the “inhibition of T0901317-induced LXR activation” value [2] is reported as 80–90%.
